# Results as given in ChEMBL document CHEMBL6134851, “Comparative Study on Covalent and Noncovalent Endogenous Albumin-Binding β-Glucuronidase-Activated SN38 Prodrugs for Antitumor Efficacy” (J Med Chem, 2025).
# The source made the active and inactive calls. The rule behind the calls is not given here.
# Tests used:
# HCT-116 [1] = assay: Antiproliferative activity against human HCT-116 cells assessed as reduction in cell viability measured after 72 hrs by MTT assay; assay type: functional, cell-based
# A549 [2] = assay: Antiproliferative activity against human A549 cells assessed as reduction in cell viability measured after 72 hrs by MTT assay; assay type: functional, cell-based
# 4T1 [3] = assay: Antiproliferative activity against mouse 4T1 cells assessed as reduction in cell viability measured after 72 hrs by MTT assay; assay type: functional, cell-based
# HepG2 [4] = assay: Antiproliferative activity against human HepG2 cells assessed as reduction in cell viability measured after 72 hrs by MTT assay; assay type: functional, cell-based
# HCT-116 [5] = assay: Antiproliferative activity against human HCT-116 cells assessed as reduction in cell viability measured after 72 hrs in presence of beta-glucuronidase by MTT assay; assay type: functional, cell-based
# A549 [6] = assay: Antiproliferative activity against human A549 cells assessed as reduction in cell viability measured after 72 hrs in presence of beta-glucuronidase by MTT assay; assay type: functional, cell-based
# 4T1 [7] = assay: Antiproliferative activity against mouse 4T1 cells assessed as reduction in cell viability measured after 72 hrs in presence of beta-glucuronidase by MTT assay; assay type: functional, cell-based
# HepG2 [8] = assay: Antiproliferative activity against human HepG2 cells assessed as reduction in cell viability measured after 72 hrs in presence of beta-glucuronidase by MTT assay; assay type: functional, cell-based
# [9] = Drug uptake in human HCT-116 cells assessed as increase in fluorescence intensity measured after 1 to 6 hrs by confocal microscopy analysis; assay type: ADME, cell-based; conditions: time 1-6 hrs
# HCT-116 [10] = assay: Antiproliferative activity against human HCT-116 cells assessed as reduction in cell viability treated with HSA bound prodrug measured after 72 hrs by MTT assay; assay type: functional, cell-based
# A549 [11] = assay: Antiproliferative activity against human A549 cells assessed as reduction in cell viability treated with HSA bound prodrug measured after 72 hrs by MTT assay; assay type: functional, cell-based
# BXPC-3 [12] = assay: Antiproliferative activity against human BXPC-3 cells assessed as reduction in cell viability treated with HSA bound prodrug measured after 72 hrs by MTT assay; assay type: functional, cell-based
# HepG2 [13] = assay: Antiproliferative activity against human HepG2 cells assessed as reduction in cell viability treated with HSA bound prodrug measured after 72 hrs by MTT assay; assay type: functional, cell-based
# 4T1 [14] = assay: Antiproliferative activity against mouse 4T1 cells assessed as reduction in cell viability treated with HSA bound prodrug measured after 72 hrs by MTT assay; assay type: functional, cell-based
# HCT-116 [15] = assay: Antiproliferative activity against human HCT-116 cells assessed as reduction in cell viability treated with HSA bound prodrug measured after 72 hrs in presence of beta-glucuronidase by MTT assay; assay type: functional, cell-based
# A549 [16] = assay: Antiproliferative activity against human A549 cells assessed as reduction in cell viability treated with HSA bound prodrug measured after 72 hrs in presence of beta-glucuronidase by MTT assay; assay type: functional, cell-based
# BXPC-3 [17] = assay: Antiproliferative activity against human BXPC-3 cells assessed as reduction in cell viability treated with HSA bound prodrug measured after 72 hrs in presence of beta-glucuronidase by MTT assay; assay type: functional, cell-based
# HepG2 [18] = assay: Antiproliferative activity against human HepG2 cells assessed as reduction in cell viability treated with HSA bound prodrug measured after 72 hrs in presence of beta-glucuronidase by MTT assay; assay type: functional, cell-based
# 4T1 [19] = assay: Antiproliferative activity against mouse 4T1 cells assessed as reduction in cell viability treated with HSA bound prodrug measured after 72 hrs in presence of beta-glucuronidase by MTT assay; assay type: functional, cell-based
# [20] = Prodrug release in female BALB/c nude mouse tumor assessed as (S)-4,11-diethyl-4,9-dihydroxy-1,12-dihydro-14H-pyrano[3',4':6,7]indolizino[1,2-b]quinoline-3,14(4H)-dione accumulation at 25 mg/kg measured after 12 hr by HPLC analysis; assay type: ADME, organism-based, Neoplasm; conditions: in vivo
# HCT-116 [21] = assay: Antitumor activity against human HCT-116 cells xenografted in female BALB/cA nude mouse model assessed as tumor shrinkage at 25 mg/kg, iv administered twice per week measured after 100 days relative to control; assay type: functional; conditions: time 100 day
# [22] = Toxicity in female BALB/cA nude mouse assessed as mortality at 25 mg/kg, iv administered twice per week measured after 107 days; assay type: organism-based; conditions: in vivo, 2568 h, time 107 day
# [23] = Toxicity in female BALB/cA nude mouse assessed as appearance of inflammatory lesions in kidney at 25 mg/kg, iv administered once a week for 35 days by H and E staining based analysis; assay type: organism-based; conditions: in vivo, 840 h, time 35 day
# [24] = Toxicity in female BALB/cA nude mouse assessed as fibrotic changes in lung at 25 mg/kg, iv administered once a week for 35 days by H and E staining based analysis; assay type: organism-based; conditions: in vivo, 840 h, time 35 day
# Albumin [25] = biological target: T1, Albumin (Homo sapiens, UniProt P02768); assay: Binding affinity to human serum albumin assessed as binding rate measured within 4 mins by HPLC analysis relative to control; assay type: ADME; conditions: isolated protein
# T1 sequence (P02768 whole entry): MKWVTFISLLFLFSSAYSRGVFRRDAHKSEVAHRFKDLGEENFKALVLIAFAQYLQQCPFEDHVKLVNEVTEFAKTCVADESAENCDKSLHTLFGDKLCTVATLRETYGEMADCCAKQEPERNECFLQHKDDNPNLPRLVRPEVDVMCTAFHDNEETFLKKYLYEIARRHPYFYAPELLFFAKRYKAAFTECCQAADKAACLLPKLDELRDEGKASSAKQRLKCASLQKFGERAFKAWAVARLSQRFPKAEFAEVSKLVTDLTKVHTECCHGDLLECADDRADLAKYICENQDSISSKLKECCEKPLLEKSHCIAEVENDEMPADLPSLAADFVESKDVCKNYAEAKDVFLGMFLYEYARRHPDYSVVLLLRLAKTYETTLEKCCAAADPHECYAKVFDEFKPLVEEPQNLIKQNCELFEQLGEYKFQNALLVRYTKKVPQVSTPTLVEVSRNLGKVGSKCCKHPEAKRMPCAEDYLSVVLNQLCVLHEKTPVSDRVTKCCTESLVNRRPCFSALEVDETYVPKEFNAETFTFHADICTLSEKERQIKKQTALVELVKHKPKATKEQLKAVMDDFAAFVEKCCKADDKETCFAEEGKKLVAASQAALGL
# [26] = Prodrug release in human plasma assessed as (S)-4,11-diethyl-4,9-dihydroxy-1,12-dihydro-14H-pyrano[3',4':6,7]indolizino[1,2-b]quinoline-3,14(4H)-dione release measured after 7 days relative to control; assay type: ADME, cell-free; conditions: 168 h, time 7 day
# [27] = Volume of distribution in female BALB/c mouse at 38 mg/kg measured up to 168 hrs by HPLC analysis; assay type: ADME, organism-based; conditions: in vivo
# HCT-116 [28] = assay: Antitumor activity against human HCT-116 cells xenografted in female BALB/cA nude mouse model assessed as relative tumor proliferation rate at 38 mg/kg, iv administered twice per week measured after 24 days relative to control; assay type: functional; conditions: time 24 day
# [29] = Toxicity in female BALB/cA nude mouse assessed as damage in lung at 38 mg/kg, iv measured after 24 hrs by H and E staining based analysis; assay type: organism-based; conditions: in vivo
# BXPC-3 [30] = assay: Antitumor activity against human BXPC-3 cells xenografted in female BALB/cA nude mouse model assessed as suppression of tumor growth by measuring relative tumor proliferation rate at 38 mg/kg, iv measured after 17 days relative to control; assay type: functional; conditions: time 17 day
# [31] = Toxicity in female BALB/cA nude mouse assessed as effect on body weight loss at 38 mg/kg, iv administered once a week for 35 days; assay type: organism-based; conditions: in vivo, 840 h, time 35 day
# [32] = Toxicity in female BALB/cA nude mouse assessed as appearance of inflammatory lesions in tumor at 38 mg/kg, iv administered once a week for 35 days by H and E staining based analysis; assay type: organism-based; conditions: in vivo, 840 h, time 35 day
# [33] = Toxicity in female BALB/cA nude mouse assessed as appearance of inflammatory lesions in spleen at 38 mg/kg, iv administered once a week for 35 days by H and E staining based analysis; assay type: organism-based; conditions: in vivo, 840 h, time 35 day
# [34] = Toxicity in female BALB/cA nude mouse assessed as appearance of inflammatory lesions in lung at 38 mg/kg, iv administered once a week for 35 days by H and E staining based analysis; assay type: organism-based; conditions: in vivo, 840 h, time 35 day
# [35] = Toxicity in female BALB/cA nude mouse assessed as fibrotic changes in liver at 38 mg/kg, iv administered once a week for 35 days by H and E staining based analysis; assay type: organism-based; conditions: in vivo, 840 h, time 35 day
# [36] = Toxicity in female BALB/cA nude mouse assessed as fibrotic changes in spleen at 38 mg/kg, iv administered once a week for 35 days by H and E staining based analysis; assay type: organism-based; conditions: in vivo, 840 h, time 35 day
# Albumin [37] = biological target: T1, Albumin; assay: Binding affinity to human serum albumin assessed as binding rate measured after 24 mins by HPLC analysis relative to control; assay type: ADME; conditions: isolated protein, 0.4 h
SMILES,Activity (HCT-116 [1]),Activity (A549 [2]),Activity (4T1 [3]),Activity (HepG2 [4]),Activity (HCT-116 [5]),Activity (A549 [6]),Activity (4T1 [7]),Activity (HepG2 [8]),Drug uptake [9],Activity (HCT-116 [10]),Activity (A549 [11]),Activity (BXPC-3 [12]),Activity (HepG2 [13]),Activity (4T1 [14]),Activity (HCT-116 [15]),Activity (A549 [16]),Activity (BXPC-3 [17]),Activity (HepG2 [18]),Activity (4T1 [19]),Activity (Albumin [25]) [%],also measured
CCc1c2c(nc3ccc(OCc4ccc(O[C@@H]5O[C@H](C(=O)O)[C@@H](O)[C@H](O)[C@H]5O)c(NC(=O)CCNC(=O)CCCCCN5C(=O)C=CC5=O)c4)cc13)-c1cc3c(c(=O)n1C2)COC(=O)[C@]3(O)CC,Not active; Compound Showed Lower Cytotoxicity Compared To Sn38,Not active; Compound Showed Lower Cytotoxicity Compared To Sn38,Not active; Compound Showed Lower Cytotoxicity Compared To Sn38,Not active; Compound Showed Lower Cytotoxicity Compared To Sn38,Active,Active,Active,Active,Active,inactive,inactive,inactive,inactive,inactive,Active,Active,Active,Active,Active,99,Drug metabolism [20]: 0.725 % ID/g; Activity (HCT-116 [21]): 100%; Activity [22]: Non-toxic; Activity [23]: Non-toxic; Activity [24]: Non-toxic; Drug metabolism [26]: metabolite_notdetected
CCc1c2c(nc3ccc(OCc4ccc(O[C@@H]5O[C@H](C(=O)O)[C@@H](O)[C@H](O)[C@H]5O)c(NC(=O)CCNC(=O)COCCOCCNC(=O)COCCOCCNC(=O)CC[C@H](NC(=O)CCCCCCCCCCCCCCCCC(=O)O)C(=O)O)c4)cc13)-c1cc3c(c(=O)n1C2)COC(=O)[C@]3(O)CC,Not active; Compound Showed Lower Cytotoxicity Compared To Sn38,Not active; Compound Showed Lower Cytotoxicity Compared To Sn38,Not active; Compound Showed Lower Cytotoxicity Compared To Sn38,Not active; Compound Showed Lower Cytotoxicity Compared To Sn38,Active,Active,Active,Active,Active,inactive,inactive,inactive,inactive,inactive,Active,Active,Active,Active,Active,95,Vd [27]: 0.24 L/kg; Activity (HCT-116 [28]): 10.59%; Activity [29]: Toxic; Activity (BXPC-3 [30]): 34.39%; Activity [31]: Non-toxic; Activity [32]: Non-toxic; Activity [33]: Non-toxic; Activity [34]: Non-toxic; Activity [35]: Non-toxic; Activity [36]: Non-toxic; Activity (Albumin [37]): 94%; Drug metabolism [26]: metabolite_notdetected
